What was measured:
[1] = Measurement of Log P values by HPLC on reversed phase columns (EEC directive 79/831 Annex V.A8); format: physicochemical
Description: Measurement of Log P values as provided herein was performed according to EEC directive 79/831 Annex V.A8 by HPLC (High Performance Liquid Chromatography) on reversed phase columns with the following methods: • ^[a] Log P value is determined by measurement of LC-UV, in an acidic range, with 0.1% formic acid in water and acetonitrile as eluent (linear gradient from 10% acetonitrile to 95% acetonitrile). • ^[b] Log P value is determined by measurement of LC-UV, in a neutral range, with 0.001 molar ammonium acetate solution in water and acetonitrile as eluent (linear gradient from 10% acetonitrile to 95% acetonitrile). • ^[c] Log P value is determined by measurement of LC-UV, in an acidic range, with 0.1% phosphoric acid and acetonitrile as eluent (linear gradient from 10% acetonitrile to 95% acetonitrile).
If more than one Log P value is available within the same method, all the values are given and separated by “+”. […]

Alternaria alternata = Alternaria alternata in vitro cell test; format: cell-based; conditions: 120 h, 20 ppm of active ingredient, liquid culture, 5 days incubation, read-out: efficacy (inhibition of fungal growth)
Description: (§1) • Solvent: […] Fungicides were solubilized in DMSO and the solution used to prepare the required range of concentrations. The final concentration of DMSO used in the assay was ≤1%. A spore suspension of Alternaria alternata was prepared and diluted to the desired spore density. Fungicides were evaluated for their ability to inhibit spore germination and mycelium growth in liquid culture assay. The compounds were added in the desired concentration to the culture medium with spores. After 5 days incubation, fungi-toxicity of compounds was determined by spectrometric measurement of mycelium growth. Inhibition of fungal growth was determined by comparing the absorbance values in wells containing the fungicides with the absorbance in control wells without fungicides.

[2] = test system: Colletotrichum lindemuthianum; assay: Colletotrichum lindemuthianum in vitro cell test; format: cell-based; conditions: 144 h, 20 ppm of active ingredient, liquid culture, 6 days incubation, read-out: efficacy (inhibition of fungal growth)
Description: as §1, with “1%.” for “≤1%.”, “Colletotrichum lindemuthianum” for “Alternaria alternata”, “6” for “5”

Fusarium culmorum = Fusarium culmorum in vitro cell test; format: cell-based; conditions: 96 h, 20 ppm of active ingredient, liquid culture, 4 days incubation, read-out: efficacy (inhibition of fungal growth)
Description: • Solvent: DMSO • Culture medium: 14.6 g anhydrous D-glucose (VWR), 7.1 g Mycological Peptone (Oxoid), 1.4 g granulated Yeast Extract (Merck), QSP 1 liter • Inoculum: spore suspension
Fungicides were solubilized in DMSO and the solution used to prepare the required range of concentrations. The final concentration of DMSO used in the assay was ≤1%.
A spore suspension of Fusarium culmorum was prepared and diluted to the desired spore density.
Fungicides were evaluated for their ability to inhibit spore germination and mycelium growth in liquid culture assay. The compounds were added in the desired concentration to the culture medium with spores. After 4 days incubation, fungi-toxicity of compounds was determined by spectrometric measurement of mycelium growth. Inhibition of fungal growth was determined by comparing the absorbance values in wells containing the fungicides with the absorbance in control wells without fungicides.

Pyricularia oryzae = assay: microbe, parasite or virus in culture; format: cell-based; conditions: 120 h, read-out: efficacy (inhibition of fungal growth)
Septoria tritici = Septoria tritici in vitro cell test; format: cell-based; conditions: Zymoseptoria tritici, 168 h; 20 ppm of active ingredient; liquid culture, 7 days incubation; read-out: efficacy (inhibition of fungal growth)
Description: • Solvent: DMSO • Culture medium: 1 g KH2PO4 (VWR), 1 g K2HPO4 (VWR), 0.5 g Urea (VWR), 3 g KNO3 (Prolabo), 10 g saccharose (VWR), 0.5 g MgSO4, 7H2O (Sigma), 0.07 g CaCl2, 2H2O (Prolabo), 0.2 mg MnSO4, H2O (Sigma), 0.6 mg CuSO4, 5H2O (Sigma), 7.9 mg ZnSO4, 7H2O (Sigma), 0.1 mg H3BO3 (Merck), 0.14 mg NaMoO4, 2H2O (Sigma), 2 mg thiamine (Sigma), 0.1 mg biotine (VWR), 4 mg FeSO4, 7H2O (Sigma), QSP 1 liter • Inoculum: spore suspension Fungicides were solubilized in DMSO and the solution used to prepare the required range of concentrations. The final concentration of DMSO used in the assay was 1%. A spore suspension of Septoria tritici was prepared and diluted to the desired spore density. Fungicides were evaluated for their ability to inhibit spore germination and mycelium growth in liquid culture assay. The compounds were added in the desired concentration to the culture medium with spores. […] Inhibition of fungal growth was determined by comparing the absorbance values in wells containing the fungicides with the absorbance in control wells without fungicides.

[3] = method [a]: LC-UV, acidic range, 0.1% formic acid in water and acetonitrile as eluent
[4] = method [b]: LC-UV, neutral range, 0.001 molar ammonium acetate solution in water and acetonitrile as eluent

| Compound | chromatographic logP [1, 3] | inhibition at 20 ppm (Alternaria alternata) | inhibition at 20 ppm [2] | inhibition at 20 ppm (Fusarium culmorum) | inhibition at 20 ppm (Pyricularia oryzae) | chromatographic logP [1, 4] | inhibition at 20 ppm (Septoria tritici) |
| --- | --- | --- | --- | --- | --- | --- | --- |
| Cc1cccc(Oc2nnc3ccccc3c2C2=NOCC(Cc3ccc(C)cc3C)N2)c1 (racemic) [Compound I-001, 4-[(5RS)-5-(2,4-dimethylbenzyl)-5,6-dihydro-4H-1,2,4-oxadiazin-3-yl]-3-(3-methylphenoxy)cinnoline] | 3.85 | ≥ 70% | ≥ 70% | ≥ 70% | ≥ 70% | – | – |
| Cc1ccc(CC2CON=C(c3c(Oc4cccc(Cl)c4)nnc4ccccc34)N2)c(C)c1 (racemic) [Compound I-002, 3-(3-chlorophenoxy)-4-[(5RS)-5-(2,4-dimethylbenzyl)-5,6-dihydro-4H-1,2,4-oxadiazin-3-yl]cinnoline] | 3.96 | ≥ 70% | ≥ 70% | ≥ 70% | ≥ 70% | – | – |
| Cc1ccc(C[C@@H]2CON=C(c3c(Oc4cccc(C5CC5)c4)nnc4ccccc34)N2)c(C)c1 (racemic) [Compound I-003] | 4.11 | ≥ 70% | ≥ 70% | ≥ 70% | ≥ 70% | – | – |
| Cc1ccc(C[C@@H]2CON=C(c3c(Oc4cccc(C(F)(F)F)c4)cnc4ccccc34)N2)c(C)c1 (racemic) [Compound I-004] | 4.19 | ≥ 70% | ≥ 70% | ≥ 70% | ≥ 70% | – | – |
| Cc1ccc(C[C@@H]2CON=C(c3c(Oc4cccc(C(F)(F)F)c4)nnc4cc(C)ccc34)N2)c(C)c1 (racemic) [Compound I-005] | 4.32 | ≥ 70% | ≥ 70% | ≥ 70% | ≥ 70% | 4.27 | – |
| Cc1ccc(CC2CON=C(c3c(Oc4cccc(C5CC5)c4F)nnc4ccccc34)N2)c(C)c1 (racemic) [Compound I-006, 3-(3-cyclopropyl-2-fluorophenoxy)-4-[(5RS)-5-(2,4-dimethylbenzyl)-5,6-dihydro-4H-1,2,4-oxadiazin-3-yl]cinnoline] | 4.37 | ≥ 70% | ≥ 70% | ≥ 70% | ≥ 70% | – | ≥ 70% |
| FC(F)(F)c1cccc(Oc2nnc3ccccc3c2C2=NOC[C@@H](Cc3ccc(Br)cc3Cl)N2)c1 (racemic) [Compound I-007] | 4.44 | ≥ 70% | ≥ 70% | ≥ 70% | ≥ 70% | – | ≥ 70% |
| Cn1cc(-c2ccc(C[C@@H]3CON=C(c4c(Oc5cccc(C(F)(F)F)c5)nnc5ccccc45)N3)c(Cl)c2)cn1 (racemic) [Compound I-008] | 3.37 | ≥ 70% | ≥ 70% | – | ≥ 70% | – | – |
| C=Cc1ccc(C[C@@H]2CON=C(c3c(Oc4cccc(C(F)(F)F)c4)nnc4ccccc34)N2)c(Cl)c1 (racemic) [Compound I-009] | 4.44 | ≥ 70% | ≥ 70% | ≥ 70% | ≥ 70% | – | ≥ 70% |
| Cc1ccc(CC2CNN=C(c3c(Oc4cccc(C(F)(F)F)c4)cnc4ccccc34)N2)c(C)c1 (racemic) [Compound I-010, 4-[(5RS)-5-(2,4-dimethylbenzyl)-1,4,5,6-tetrahydro-1,2,4-triazin-3-yl]-3-[3-(trifluoromethyl)phenoxy]quinoline] | 2.57 | ≥ 70% | – | – | – | – | – |
| Cc1ccc(CC2CN=C(c3c(Oc4cccc(C(F)(F)F)c4)cnc4ccccc34)N2)c(C)c1 (racemic) [Compound I-011, 4-[(5RS)-5-(2,4-dimethylbenzyl)-4,5-dihydro-1H-imidazol-2-yl]-3-[3-(trifluoromethyl)phenoxy]quinoline] | 2.57 | ≥ 70% | ≥ 70% | – | ≥ 70% | – | – |
| Cc1ccc(C[C@@H]2CN=C(c3c(Oc4cccc(Cl)c4)nnc4ccccc34)N2)c(C)c1 (racemic) [Compound I-012] | 2.46 | ≥ 70% | ≥ 70% | – | ≥ 70% | – | – |
| Cc1ccc(C[C@@H]2CON=C(c3c(Oc4cccc(C(F)(F)F)c4)cnc4ccoc34)N2)c(C)c1 (racemic) [Compound I-013] | 3.96 | ≥ 70% | ≥ 70% | ≥ 70% | ≥ 70% | – | ≥ 70% |
| Cc1ccc(C[C@@H]2CON=C(c3c(Oc4cccc(C5CC5)c4F)cnc4nccnc34)N2)c(C)c1 (racemic) [Compound I-014] | 3.5 | ≥ 70% | ≥ 70% | ≥ 70% | – | – | ≥ 70% |
| FC(F)(F)c1cccc(Oc2cnc3ccccc3c2C2=NC[C@@H](Cc3ccc(Cl)cc3)N2)c1 (racemic) [Compound I-015] | 2.46 | ≥ 70% | ≥ 70% | ≥ 70% | ≥ 70% | – | ≥ 70% |
| C=Cc1cccc(Oc2cnc3ccccc3c2C2=NOC[C@@H](Cc3ccc(C)cc3Cl)N2)c1 (racemic) [Compound I-026] | 4.19 | – | – | – | – | – | – |
| Cc1ccc(C[C@@H]2CON=C(c3c(Oc4cccc(C(F)(F)F)c4)nnc4c3CCC4)N2)c(C)c1 (racemic) [Compound I-027] | 3.87 | – | – | – | – | – | – |
| Cc1ccc(C[C@@H]2CON=C(c3c(Oc4cccc(C(F)F)c4)nnc4c3CCCC4)N2)c(C)c1 (racemic) [Compound I-028] | 3.6 | – | – | – | – | – | – |
| Cc1ccc(C[C@@H]2CON=C(c3c(Oc4cccc(C5CC5)c4F)nnc4c3CCC4)N2)c(C)c1 (racemic) [Compound I-029] | 4.13 | – | – | – | – | – | – |
| Cc1ccc(C[C@@H]2CON=C(c3c(Oc4cccc(Br)c4F)cnc4ccccc34)N2)c(Cl)c1 (racemic) [Compound I-030] | 4.37 | – | – | – | – | – | – |
| Cc1ccc(C[C@@H]2CON=C(c3c(Oc4cccc(C(F)F)c4)cnc4ccccc34)N2)c(Cl)c1 (racemic) [Compound I-031] | 3.98 | – | – | – | – | – | – |
| CCOC(=O)c1c(Oc2cccc(C(F)(F)F)c2)nnc2c1CCC2 [Compound 1-22] | 3.5 | – | – | – | – | 3.35 | – |
| O=C(O)c1c(Oc2cccc(C(F)(F)F)c2)nnc2c1CCC2 [Compound 1-23] | 1.75 | – | – | – | – | 0.44 | – |

— patent US12673942B2, “Azabicyclyl-substituted heterocycles as fungicides” (Bayer Aktiengesellschaft, priority 2020, dated 2026)
